We go through one molecule from publication PMC9139979, “Features of ZED1227: The First-In-Class Tissue Transglutaminase Inhibitor Undergoing Clinical Evaluation for the Treatment of Celiac Disease” (Cells, 2022).

A short description of series [1]: logD by shake flask method (octanol/PBS pH 7.4). The series is classed as physicochemical. As to the method:
The logD value (distribution coefficient) of the compound was determined by means of the shake flask method, measuring the distribution of the solute in octanol and phosphate-buffered saline (PBS, pH 7.4). The concentration of ZED1227 in the immiscible solvents was determined by HPLC (vide supra). The stability in PBS (pH 7.4 or acidified to pH 5.0), in artificial gastric, and intestinal fluid was calculated as the percentage of residual parent compound after incubation for 24 h at 37 °C, using an initial concentration of 100 μM.

Another series concerns the target T1, hTG2 (Homo sapiens, UniProt P21980).
T1 construct: purchased Zedira T022
T1 sequence (P21980 1-687): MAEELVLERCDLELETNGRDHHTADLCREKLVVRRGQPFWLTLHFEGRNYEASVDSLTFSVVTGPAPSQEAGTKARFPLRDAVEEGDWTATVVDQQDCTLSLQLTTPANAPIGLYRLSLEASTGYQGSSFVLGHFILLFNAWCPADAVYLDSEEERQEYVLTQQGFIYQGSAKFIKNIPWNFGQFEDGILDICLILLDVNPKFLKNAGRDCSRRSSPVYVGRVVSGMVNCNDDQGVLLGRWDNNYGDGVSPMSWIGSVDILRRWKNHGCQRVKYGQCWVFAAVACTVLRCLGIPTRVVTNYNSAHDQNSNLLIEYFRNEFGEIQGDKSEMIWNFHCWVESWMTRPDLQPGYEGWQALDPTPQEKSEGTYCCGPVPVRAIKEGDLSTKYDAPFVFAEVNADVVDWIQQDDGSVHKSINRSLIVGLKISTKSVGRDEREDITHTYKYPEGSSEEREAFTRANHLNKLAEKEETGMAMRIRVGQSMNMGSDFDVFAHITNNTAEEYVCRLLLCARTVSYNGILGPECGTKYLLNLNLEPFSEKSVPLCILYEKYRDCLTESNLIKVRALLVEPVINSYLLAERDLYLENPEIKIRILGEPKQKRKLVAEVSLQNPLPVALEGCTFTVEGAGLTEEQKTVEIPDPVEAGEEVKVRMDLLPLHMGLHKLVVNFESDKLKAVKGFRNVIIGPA
Put plainly: Fluorescent transamidation assay (DCC-assay), hTG2. To be noted: recombinant human TG2, transamidation assay. It counts as biochemical. As to the method:
Inhibition data were determined using the fluorescent transamidation assay (dansylcadaverine incorporation into glutamine-donor substrate N,N-dimethyl casein, DCC-assay). Briefly, to 15 μL of ZED1227 solution (dissolved and serial diluted in 2% (v/v) DMSO/assay buffer), 285 μL assay buffer [47.5 mM tris(hydroxymethyl)aminomethane, 9.5 mM CaCl2, 9.5 mM glutathione, 2.4% (v/v) glycerol, 190 mM NaCl, pH 8.0] containing dansylcadaverine (15.9 μM), N,N-dimethyl casein (3.8 μM) and the indicated recombinant transglutaminase enzyme [0.95 μg/mL hTG1 (T035), 0.81 μg/mL hTG2 (T022), 0.83 μg/mL hTG6 (T021), all from Zedira] were added, mixed and the kinetic measurement started immediately. In the case of hFXIII-A2 (0.83 μg/mL, T027, Zedira), the assay buffer contained human α-thrombin (5.2 × 10^−3 U/μL, T056, Zedira). The mixture was incubated for 20 min at room temperature to activate FXIII. In the case of hTG3a (0.81 μg/mL, T013, Zedira), full enzymatic activity was obtained by incubation for 80 min at 37 °C in assay buffer before addition of the inhibitor and start of the kinetics.
Fluorescence emission was continuously monitored for 30 min at λem = 500 nm (λex = 330 nm) and 37 °C using a CLARIOstar fluorescence plate reader (BMG Labtech, Ortenberg, Germany). All measurements were performed in triplicate. The respective IC50 (and IC90 for TG2) values were calculated by non-linear regression using the MARS software package (BMG Labtech). An irreversible-acting inhibitor, such as ZED1227, should, correctly, be characterized by the second-order rate constant k2nd, as detailed by Keillor [46]. However, such data are rather abstract and difficult to comprehend.
To facilitate comparability during lead structure optimization and to roughly estimate concentrations needed at the target site, the apparent IC50 values (calculated by four-parameter non-linear fit by MARS software) for irreversible inhibitors are more instructive and are therefore reported. Further, we report the potency of commercially available reference inhibitors Z006 (“Z-DON”), Z013 (ZED754), and T101 (all Zedira). To gain deeper mechanistic insight, we discuss the second-order rate constants (k2nd) published for Z006 and ZED754 in relation to their respective IC50 values.

In series [2] the test system is healthy female and male volunteers. Put plainly: Phase 1 clinical trial in healthy individuals. The series is classed as in vivo, human. Here is the method: The phase 1 clinical trial involved more than 100 healthy individuals exposed to up to 500 mg of ZED1227. […] Accordingly, the new chemical entity was progressed to a phase 2a clinical study. The efficacy and safety of a 6-week treatment with ZED1227 was assessed in a randomized, double-blind, placebo-controlled, dose-finding trial at three dose levels (10, 50, 100 mg). In this trial, adult patients with well-controlled celiac disease were challenged with 3 g daily gluten intake to assess the protective effect of ZED1227 on the mucosa. […] Based on the promising results a phase 2b study was initiated in celiac disease patients suffering from symptoms despite following a “gluten-free diet”—essentially an adjunct treatment. There will be no gluten challenge in this “real-life” study, which aims to further substantiate the protective effect of ZED1227 and impact on quality of life in celiac disease patients. It remains to be seen whether the promising clinical data obtained so far translate into a viable, commercially successful drug for patient benefit.

Molecules are shown by their SMILES.

Broadly, the logD is the decadic logarithm of the distribution of all forms, ionised or not, between an organic phase and buffer at a given pH. Higher therefore signals higher lipophilicity. What is called IC90 is the concentration needed for an effect of 90%. In general, IC50 refers to the concentration that gives 50% inhibition.

The molecule `CCC(CC)CNC(=O)Cn1cccc(NC(=O)[C@H](CC/C=C/C(=O)OC)NC(=O)c2cncn2C)c1=O` [ZED1227, (S,E)-Methyl 7-(1-(2-(2-ethylbutylamino)-2-oxoethyl)-2-oxo-1,2-dihydropyridin-3-ylamino)-6-(1-methyl-1H-imidazole-5-carboxamido)-7-oxohept-2-enoate] registered a logD in series [1] of 2. Besides, the IC90 on hTG2 is 300 nM. Also, the IC50 at hTG2 (apparent IC50 of irreversible inhibitor, read-out: App. IC50 hTG2) was 53 nM. For the same molecule, the “Safety and tolerability, phase 1” value in series [2] (more than 100 healthy individuals, up to 500 mg, EudraCT 2014-003044-13 and 2015-005283-42) was “safe and well-tolerated”. For the same molecule, the “Overall safety and tolerability, phase 1 and phase 2a” value in series [2] (more than 100 healthy volunteers and 123 patients in verum groups) was “safe and well-tolerated”.
